Measurements published in patent US20210059995A1, “Composition for Protecting Cornea” (Kyoto University, priority 2017, published 2021).

Assays:
[1] = system: rabbit corneal endothelial cells; experiment: Cell morphology (phase-contrast) of cultured rabbit corneal endothelial cells under antimycin, oligomycin or glucose deprivation; assay type: cell-based; conditions: compound 50 μM
Experimental: (§1) Whole eyeballs of Japanese white rabbits (Funakoshi Corporation) were cut along corneal limbus with a razor blade and the corneas were isolated. The corneal endothelial cells were mechanically scraped off and collected with a crescent knife. Primary cultures were prepared in a DMEM with 10% fetal bovine serum and 2 ng/ml bFGF. The sub-confluent cells were treated with trypsin and collected, then plated on 12-well plates at the equal density of 4×10^4 cells/well and cultured in the same medium for 24 hours. The cells were subsequently cultured in the following eight different conditions: (1) control (the medium+DMSO), (2) the medium+KUS121 (50 μM), (3) the medium+antimycin (20 μM), (4) the medium+antimycin (20 μM)+KUS121 (50 μM), (5) the medium+oligomycin (10 μM), (6) the medium+oligomycin (10 μM)+KUS121 (50 μM), (7) DMEM with 2 ng/ml bFGF (non-glucose); and (8) DMEM with 2 ng/ml bFGF (non-glucose)+KUS121 (50 μM).
After the addition of the agents, sequential phase-contrast images of the cultured corneal endothelial cells were obtained.

[2] = system: rabbit corneal endothelial cells; experiment: Intracellular ATP concentration (luciferase assay) in cultured rabbit corneal endothelial cells; assay type: cell-based; conditions: compound 50 μM, FIG. 3
Experimental: as §1
The corneal endothelial cells cultured in the presence of the agents (P=1) were washed with PBS(−), treated with trypsin, suspended in the medium (DMEM with 10% fetal bovine serum and 2 ng/ml bFGF), and counted. Then 2.5×10^4 cells were centrifuged, suspended in PBS(−), and dispensed into 5 wells of a 96-well plate at the density of 5×10^3 cells/well. The cells were subjected to a luciferase assay (“Cell” ATP Assay reagent, TOYO B-Net CO., LTD.). The fluorescence intensities were measured as relative intracellular ATP concentrations using a luminometer.

[3] = system: immortalized human corneal endothelial cells (iHCECs); experiment: Cell morphology and apoptosis of thapsigargin-treated immortalized human corneal endothelial cells by phase-contrast microscopy; assay type: cell-based; conditions: 10 μM thapsigargin for 8 hours, compound 10, 25, 50 or 100 μM with 24 hours pretreatment, FIG. 4
Experimental: Corneas for research were imported from SightLife™ (Seattle, Wash.). The cornea endothelial cells were stripped from the corneas with Descemet's membranes and immersed in a corneal preservation solution (Optisol-GS, Bausch & Lomb Incorporated). The cornea endothelial cells were treated with collagenase and collected. The cells were cultured in a conditioned medium which was prepared by culturing 3T3 cells in OptiMEM (Gibco, 3195070) with 10% fetal bovine serum (FBS) for 24 hours and then adding 10 μM SB203580 (Funakoshi, 13067) and 1 μM SB431542 (Wako, 192-16541) to the culture medium.
The corneal endothelial cells were immortalized by the following procedures. SV40 large T antigen and hTERT genes were amplified by PCR, and introduced into a lentiviral vector (pLenti6.3-V5-TOPO; Life Technologies Inc.). The lentiviral vector and three helper plasmids (pLP1, pLP2, pLP/VSVG; Life Technologies Inc.) were transfected into 293T cells (RCB2202; Riken Bioresource Center, Ibaraki, Japan) with a transfection reagent (Fugene HD; Promega Corp., Madison, Wis.). The culture supernatant containing the virus was collected 48 hours after the transfection and added to the culture medium of the cornea endothelial cells with 5 μg/ml of Polybrene, thereby the SV40 large T antigen and hTERT genes were introduced into the cells. […]

[4] = system: immortalized human corneal endothelial cells (iHCECs); experiment: Western blot analysis of cleaved caspase 3 and PARP in thapsigargin-treated immortalized human corneal endothelial cells; assay type: cell-based; conditions: 10 μM thapsigargin for 8 hours, compound 10, 25, 50 or 100 μM, FIG. 5
Experimental: The medium was changed to the medium containing 10 μM thapsigargin (WAKO, 209-17281) and KUS121 (10 μM, 25 μM, 50 μM, or 100 μM), and the cells were cultured for 8 hours. Medium: DMEM+10% FBS+1% P/S
After the observation of the morphology, western blot analysis was performed by the following procedures.
The media were collected from each well on ice, the cells were washed twice with 1×PBS(−), and the washings were collected. In order to collect suspended cells and dead cells, the collected media and washings were centrifuged at 4° C., 800 g, for 12 minutes, the supernatants were discarded and the pellets were obtained. Protein extraction buffers (RIPA; 50 mM Tris-HCl (pH 7.4), 150 mM NaCl, 1 mM EDTA, 0.1% SDS, 0.5% DOC, 1% NP-40) were added to the washed cells on ice. The cells were suspended together with the pellets of the suspended cells and dead cells. […]
The protein extracts (7 μg each) were separated by SDS-PAGE and transferred to a nitrocellulose membrane. […] The signals were detected by Chemi Lumi ONE Ultra (NACALAI TESQUE, INC., 11644-40). The intensities of the detected bands were analyzed by luminescent image analyzer LAS-4000 mini (Fujifilm Corporation) and ImageQuant™ software (GE Healthcare).

[5] = system: rabbit corneas; experiment: Rabbit corneas preserved in Optisol-GS: HE-staining microscopic findings and central corneal thickness; conditions: Optisol-GS at 4° C., 1-4 weeks, KUS121 50 μM, KUS187 20 μM; for swelling of corneal endothelial cells during preservation: control swelled at week 1; for swelling of corneal endothelial cells during preservation / swelling of corneal stroma during preservation: FIG. 6; for swelling of corneal stroma during preservation: control swelled at week 3; for corneal epitheliums and cornea thicknesses versus control group: especially at week 3 or later, FIG. 6, 7
Experimental: (§2) Japanese white rabbits were euthanized, whole eyeballs were excised, and sclerocorneal preparations were prepared by using a razor blade. Each four sclerocorneal preparations were preserved in the following preservation solutions at 4° C. for 4 weeks; (1) Optisol-GS (control), (2) Optisol-GS+KUS121 (50 μM), or (3) Optisol-GS+KUS187 (20 μM). The tissues were sequentially embedded and sectioned.
The tissue sections were stained with HE-staining and observed by microscopy. The images were compared over time among the preservation conditions (FIG. 6). Microscopic images of the sections including the central parts of the corneas were obtained and the central corneal thicknesses were measured and compared over time among the preservation conditions (FIG. 7). In the corneas preserved in Optisol-GS (control), the corneal endothelial cells swelled at week 1 and the corneal stroma swelled at week 3.

[6] = system: rabbit corneal epithelial cells; experiment: Rabbit corneas preserved in Optisol-GS: apoptosis of corneal epithelial cells by TUNEL assay; conditions: Optisol-GS at 4° C., 1-4 weeks; KUS121 50 μM, KUS187 20 μM; FIG. 8-10
Experimental: as §2
The tissue sections were fluorescently stained by TUNEL method and observed by confocal microscopy. Images of the epithelial layers around the centers of the corneas were obtained in three different fields (FIG. 8). […] The total corneal epithelial cells stained with PI and the TUNEL-positive cells were counted and the percentages of the TUNEL-positive cells were calculated. The percentages were compared over time among the preservation conditions (FIG. 10). The TUNEL-positive apoptotic cells were increased in the corneal epithelial cells of the control group after week 1. The apoptosis was suppressed in the KUS121 and KUS187 groups.

[7] = system: rabbit corneal endothelial cells; experiment: Rabbit corneas preserved in Optisol-GS: corneal endothelia by immunofluorescence staining of Na+/K+ ATPase; conditions: Optisol-GS at 4° C., from week 1; KUS121 50 μM, KUS187 20 μM; FIG. 11
Experimental: as §2
The tissue sections were fluorescently stained with anti-Na+/K+ ATPase antibody, the corneal endothelia around the centers of the corneas were observed by indirect immunofluorescence microscopy, and the images were compared over time among the preservation conditions (FIG. 11).

[8] = system: rabbit corneas; experiment: Rabbit corneas preserved in Optisol-GS: transmission electron microscopy; conditions: corneas preserved for one week in Optisol-GS at 4° C., compound 50 μM, FIG. 13
Experimental: as §2
Corneas preserved for one week were immersed in 0.1 M phosphate buffer containing 2% glutaraldehyde at 4° C. for prefixation, in 0.1 M phosphate buffer at 4° C. overnight for washing, and in 2% aqueous osmium solution at 4° C. for 3 hours for postfixation. For dehydration the corneas were successively immersed in ethanol solutions of high concentrations (50, 70, 90, 100, 100, and 100%) at 4° C. (50%) or a room temperature for 15 minutes. For substitution the corneas were immersed in propylene oxide at a room temperature for 45 minutes and then in a mixture of propylene oxide and epoxy resin at a room temperature for 1.5 hours. For embedding the samples and epoxy resin were put into capsules and cured at 60° C. for 48 hours. Then 80-90 nm sections were prepared by using an ultramicrotome and put on 200 meshes. The sections were stained with 2% uranyl acetate and lead and reinforced by carbon deposition (reinforcement of sections against electron beams). […]

Compound: Cc1cc(F)ccc1-c1ccc(N=Nc2cc(S(=O)(=O)[O-])c3ccccc3c2N)cn1.[Na+] [KUS121, 4-amino-3-[6-(4-fluoro-2-methylphenyl)pyridine-3-ylazo]naphthalene-1-sulfonic acid sodium salt]
- death of corneal endothelial cells caused by antimycin ([1]; antimycin 20 μM, 28 hours after addition of the agents, FIG. 1): the cell death was suppressed
- death of corneal endothelial cells caused by glucose deprivation ([1]; cultured without glucose, 96 hours, FIG. 2): the cell death was suppressed
- death of corneal endothelial cells caused by oligomycin ([1]; oligomycin 10 μM, 28 hours after addition of the agents, FIG. 1): the cell death was suppressed
- decrease of intracellular ATP concentration in the absence of glucose ([2]; absence of glucose for 96 hours): the decrease was suppressed
- decrease of intracellular ATP concentration caused by antimycin ([2]; antimycin 20 μM for 27 hours): the decrease was suppressed
- decrease of intracellular ATP concentration caused by oligomycin ([2]; oligomycin 10 μM for 27 hours): the decrease was suppressed
- deformation of the cells (cell damage) caused by thapsigargin [3]: the deformation was suppressed
- band of cleaved caspase 3 (about 17 kDa) induced by thapsigargin [4]: hardly detected
- swelling of corneal endothelial cells during preservation [5]: the cell swelling was suppressed until week 2
- swelling of corneal stroma during preservation [5]: the corneal stroma swelling was kept mild until week 4
- corneal epitheliums and cornea thicknesses versus control group [5]: maintained better
- TUNEL-positive cells among corneal epithelial cells versus control group [6]: fewer through the test period than in the control group
- corneal endothelial cells (Na+/K+ ATPase staining) versus control group [7]: maintained better
- swelling of the corneal stroma and the corneal endothelial cells (electron microscopy) [8]: observed in the control, but not in the corneas preserved in a solution containing KUS121
- vacuolization of the corneal epithelial cells and loss of microvilli [8]: observed in the control, but not in the corneas preserved in a solution containing KUS121

Compound: CCCCOc1c(C=O)cc(C)cc1-c1ccc(N=Nc2cc(S(=O)(=O)[O-])c3ccccc3c2N)cn1.[Na+] [KUS187, 4-amino-3-[6-(3-formyl-2-butoxy-5-methylphenyl)pyridine-3-ylazo]naphthalene-1-sulfonic acid sodium salt]
- swelling of corneal endothelial cells during preservation [5]: the cell swelling was suppressed until week 2
- swelling of corneal stroma during preservation [5]: the corneal stroma swelling was kept mild until week 4
- corneal epitheliums and cornea thicknesses versus control group [5]: maintained better
- TUNEL-positive cells among corneal epithelial cells versus control group [6]: fewer through the test period than in the control group
- corneal endothelial cells (Na+/K+ ATPase staining) versus control group [7]: maintained better
